Consider 22 compounds from US9828368B2 (MERCK SHARP & DOHME CORP., priority 2013, dated 2017).

For one experiment, the target named is hOX1R (Homo sapiens, UniProt O43613). The experiment can be described thus: FLIPR Ca2+ flux assay, hOX1R. The class given is cell-based. The settings on record: CHO cells; agonist 70 pM Ala-6,12 orexin-A; rat orexin-1 receptor; read-out: hOX1R FLIPR IC50.
Another experiment has as its target human orexin-2 receptor (Homo sapiens (Human), UniProt O43614). The experiment can be described thus: FLIPR Ca2+ flux assay, hOX2R. It counts as cell-based. Particulars: CHO cells expressing human orexin-2 receptor; agonist 70 pM Ala-6,12 orexin-A. On the procedure: In a typical experiment the OX1 and OX2 receptor antagonistic activity of the compounds of the present invention was determined in accordance with the following experimental method. For intracellular calcium measurements, Chinese hamster ovary (CHO) cells expressing the rat orexin-1 receptor or the human orexin-2 receptor, are grown in Iscove's modified DMEM containing 2 mM L-glutamine, […], 1% hypoxanthine-thymidine supplement, 100 U/ml penicillin, 100 μg/ml streptomycin and 10% heat-inactivated fetal calf serum (FCS). The cells are seeded at 20,000 cells/well into Becton-Dickinson black 384-well clear bottom sterile plates coated with poly-D-lysine. All reagents were from GIBCO-Invitrogen Corp. The seeded plates are incubated overnight at 37° C. and 5% CO2. Ala-6,12 human orexin-A as the agonist is prepared as a 1 mM stock solution in 1% bovine serum albumin (BSA) and diluted in assay buffer (HBSS containing 20 mM HEPES, 0.1% BSA and 2.5 mM probenecid, pH7.4) for use in the assay at a final concentration of 70 pM. Test compounds are prepared as 10 mM stock solution in DMSO, then diluted in 384-well plates, first in DMSO, then assay buffer. On the day of the assay, cells are washed 3 times with 100 μl assay buffer and then incubated for 60 min (37° C., 5% CO2) in 60 μl assay buffer containing 1 μM Fluo-4AM ester, 0.02% pluronic acid, and 1% BSA. The dye loading solution is then aspirated and cells are washed 3 times with 100 μl assay buffer. 30 μl of that same buffer is left in each well. Within the Fluorescent Imaging Plate Reader (FLIPR, Molecular Devices), test compounds are added to the plate in a volume of 25 μl, incubated for 5 min and finally 25 μl of agonist is added. Fluorescence is measured for each well at 1 second intervals for 5 minutes and the height of each fluorescence peak is compared to the height of the fluorescence peak induced by 70 pM Ala-6,12 orexin-A with buffer in place of antagonist. […] The intrinsic orexin receptor antagonist activity of a compound which may be used in the present invention may be determined by these assays.

human orexin-2 receptor, sequence (O43614 whole entry): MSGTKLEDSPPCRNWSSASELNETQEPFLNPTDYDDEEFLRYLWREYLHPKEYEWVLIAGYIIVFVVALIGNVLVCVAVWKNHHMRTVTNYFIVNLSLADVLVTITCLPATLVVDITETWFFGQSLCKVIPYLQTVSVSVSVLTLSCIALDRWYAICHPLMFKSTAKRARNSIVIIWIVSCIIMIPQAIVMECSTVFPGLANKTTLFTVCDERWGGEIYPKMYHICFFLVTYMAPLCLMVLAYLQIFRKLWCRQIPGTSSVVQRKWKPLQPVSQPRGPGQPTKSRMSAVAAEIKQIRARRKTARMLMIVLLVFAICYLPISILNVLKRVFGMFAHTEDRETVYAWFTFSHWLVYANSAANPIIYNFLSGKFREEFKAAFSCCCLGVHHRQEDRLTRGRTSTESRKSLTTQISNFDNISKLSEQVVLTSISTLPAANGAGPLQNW

On to `Cc1oc([C@@H]2CC[C@@H](C)N(C(=O)c3cccnc3OCC(F)F)C2)nc1C(C)(C)O` [Example 38, (2-(2,2-Difluoroethoxy)pyridin-3-yl)((2R,5R)-5-(4-(2-hydroxypropan-2-yl)-5-methyloxazol-2-yl)-2-methylpiperidin-1-yl)methanone], for which the values for the IC50 on hOX1R and at human orexin-2 receptor were approximately 6400 nM and 14.1 nM, respectively.
The like results for `Cc1oc([C@@H]2CC[C@@H](C)N(C(=O)c3cccnc3OCC(F)(F)F)C2)nc1C(C)(C)O` [Example 39, ((2R,5R)-5-(4-(2-Hydroxypropan-2-yl)-5-methyloxazol-2-y1)-2-methylpiperidin-1-yl)(2-(2,2,2-trifluoroethoxy)pyridin-3-yl)methanone] were, in that order, 2130 nM and 17.5 nM.
For `Cc1oc([C@@H]2CC[C@@H](C)N(C(=O)c3cccnc3OC(C)C)C2)nc1C(C)(C)O` [Example 40, ((2R,5R)-5-(4-(2-Hydroxypropan-2-yl)-5-methyloxazol-2-yl)-2-methylpiperidin-1-yl)(2-isopropoxypyridin-3-yl)methanone], the IC50 on hOX1R was more than 10000 nM; at human orexin-2 receptor, 29.5 nM.
On the same counts, the results for `COCCc1ccccc1C(=O)N1C[C@H](c2nc(C(C)(C)O)c(C)o2)CC[C@H]1C` [Example 41, ((2R,5R)-5-(4-(2-Hydroxypropan-2-yl)-5-methyloxazol-2-yl)-2-methylpiperidin-1-yl)(2-(2-methoxyethyl)phenyl)methanone] are more than 10000 nM and 57 nM.
The like results for `Cc1oc([C@@H]2CC[C@@H](C)N(C(=O)c3cnsc3-n3nccn3)C2)nc1C(C)(C)O` [Example 42, (5-(2H-1,2,3-Triazol-2-yl)isothiazol-4-yl)((2R,5R)-5-(4-(2-hydroxypropan-2-yl)-5-methyloxazol-2-yl)-2-methylpiperidin-1-yl)methanone] were, in that order, more than 10000 nM and 114 nM.
On to `Cc1cc(C(=O)N2C[C@H](c3nc(C(C)(C)O)c(C)o3)CC[C@H]2C)c(-n2nccn2)s1` [Example 43, ((2R,5R)-5-(4-(2-Hydroxypropan-2-yl)-5-methyloxazol-2-yl)-2-methylpiperidin-1-yl)(5-methyl-2-(2H-1,2,3-triazol-2-yl)thiophen-3-yl)methanone], for which the values for the IC50 on hOX1R and at human orexin-2 receptor were 1190 nM and 30 nM, respectively.
`CC[C@@](C)(O)c1nc([C@@H]2CC[C@@H](C)N(C(=O)c3ccccc3-n3nccn3)C2)oc1C` [Example 44, (2-(2H-1,2,3-Triazol-2-yl)phenyl)((2R,5R)-5-(4-((R)-2-hydroxybutan-2-yl)-5-methyloxazol-2-yl)-2-methylpiperidin-1-yl)methanone]: the IC50 at hOX1R amounted to 790 nM; at human orexin-2 receptor, 31 nM.
The like results for `CC[C@](C)(O)c1nc([C@@H]2CC[C@@H](C)N(C(=O)c3ccccc3-n3nccn3)C2)oc1C` [Example 45, (2-(2H-1,2,3-triazol-2-yl)phenyl)((2R,5R)-5-(4-((S)-2-hydroxybutan-2-yl)-5-methyloxazol-2-yl)-2-methylpiperidin-1-yl)methanone] were, in that order, 1220 nM and 24 nM.
Consider `CC[C@](C)(O)c1nc([C@@H]2CC[C@@H](C)N(C(=O)c3cscc3-n3nccn3)C2)oc1C` [Example 46, (4-(2H-1,2,3-triazol-2-yl)thiophen-3-yl)((2R,5R)-5-(4-((S)-2-hydroxybutan-2-yl)-5-methyloxazol-2-yl)-2-methylpiperidin-1-yl)methanone], for which the IC50 worked out at 4700 nM on hOX1R and 37 nM at human orexin-2 receptor.
On the same counts, the results for `CC[C@@](C)(O)c1nc([C@@H]2CC[C@@H](C)N(C(=O)c3cscc3-n3nccn3)C2)oc1C` [Example 47, (4-(2H-1,2,3-triazol-2-yl)thiophen-3-yl)((2R,5R)-5-(4-((R)-2-hydroxybutan-2-yl)-5-methyloxazol-2-yl)-2-methylpiperidin-1-yl)methanone] are 9770 nM and 18 nM.
The like results for `C[C@@H]1CC[C@@H](c2nc(C(C)(C)O)c(Cl)o2)CN1C(=O)c1ccccc1-n1nccn1` [Example 52, (2-(2H-1,2,3-Triazol-2-yl)phenyl)((2R,5R)-5-(5-chloro-4-(2-hydroxypropan-2-yl)oxazol-2-yl)-2-methylpiperidin-1-yl)methanone] were, in that order, 3160 nM and 265 nM.
For the compound `C[C@@H]1CC[C@@H](c2nc(C(C)(C)O)c(C(F)F)o2)CN1C(=O)c1ccccc1-n1nccn1` [Example 53, (2-(2H-1,2,3-Triazol-2-yl)phenyl)((2R,5R)-5-(5-(difluoromethyl)-4-(2-hydroxypropan-2-yl)oxazol-2-yl)-2-methylpiperidin-1-yl)methanone], the IC50 on hOX1R came out at 316 nM; on human orexin-2 receptor, 43 nM.
Regarding `C[C@@H]1CC[C@@H](c2nc(C(C)(C)O)c(C(F)(F)F)o2)CN1C(=O)c1ccccc1-n1nccn1` [Example 54, (2-(2H-1,2,3-Triazol-2-yl)phenyl)((2R,5R)-5-(4-(2-hydroxypropan-2-yl)-5-(trifluoromethyl)oxazol-2-yl)-2-methylpiperidin-1-yl)methanone], the IC50 stood at 240 nM at hOX1R and 42 nM at human orexin-2 receptor.
The like results for `Cc1nc([C@@H]2CC[C@@H](C)N(C(=O)c3ccccc3-n3nccn3)C2)oc1C(C)(C)O` [Example 55, (2-(2H-1,2,3-Triazol-2-yl)phenyl)((2R,5R)-5-(5-(2-hydroxypropan-2-yl)-4-methyloxazol-2-yl)-2-methylpiperidin-1-yl)methanone] were, in that order, 89 nM and 63 nM.
The like results for `COC(=O)c1nc([C@@H]2CC[C@@H](C)N(C(=O)c3ccccc3-n3nccn3)C2)oc1-c1ccccc1` [Example 56, Methyl 2-((3R,6R)-1-(2-(2H-1,2,3-triazol-2-yl)benzoyl)-6-methylpiperidin-3-yl)-5-phenyloxazole-4-carboxylate] were, in that order, 359 nM and 1590 nM.
The like results for `C[C@@H]1CC[C@@H](c2nc(CO)c(-c3ccccc3)o2)CN1C(=O)c1ccccc1-n1nccn1` [Example 57, (2-(2H-1,2,3-Triazol-2-yl)phenyl)((2R,5R)-5-(4-(hydroxymethyl)-5-phenyloxazol-2-yl)-2-methylpiperidin-1-yl)methanone] were, in that order, 368 nM and 1170 nM.
For the compound `C[C@@H]1CC[C@@H](c2nc(CF)c(-c3ccccc3)o2)CN1C(=O)c1ccccc1-n1nccn1` [Example 58, (2-(2H-1,2,3-Triazol-2-yl)phenyl)((2R,5R)-5-(4-(fluoromethyl)-5-phenyloxazol-2-yl)-2-methylpiperidin-1-yl)methanone], the IC50 on hOX1R amounted to 220 nM; on human orexin-2 receptor, 159 nM.
`COCc1nc([C@@H]2CC[C@@H](C)N(C(=O)c3ccccc3-n3nccn3)C2)oc1-c1ccccc1` [Example 59, (2-(2H-1,2,3-Triazol-2-yl)phenyl)((2R,5R)-5-(4-(methoxymethyl)-5-phenyloxazol-2-yl)-2-methylpiperidin-1-yl)methanone]: the IC50 stood at 100 nM on hOX1R and 347 nM at human orexin-2 receptor.
With `C[C@@H]1CC[C@@H](c2nc(C(C)(C)O)c(-c3ccccc3)o2)CN1C(=O)c1ccccc1-n1nccn1` [Example 60, (2-(2H-1,2,3-Triazol-2-yl)phenyl)((2R,5R)-5-(4-(2-hydroxypropan-2-yl)-5-phenyloxazol-2-yl)-2-methylpiperidin-1-yl)methanone], the IC50 turned out to be 76 nM on hOX1R and 84 nM on human orexin-2 receptor.
On the same counts, the results for `C[C@@H]1CC[C@@H](c2nc(C(N)=O)c(-c3ccccc3)o2)CN1C(=O)c1ccccc1-n1nccn1` [Example 61, 2-((3R,6R)-1-(2-(2H-1,2,3-Triazol-2-yl)benzoyl)-6-methylpiperidin-3-yl)-5-phenyloxazole-4-carboxamide] are 65 nM and 197 nM.
For the compound `C[C@@H]1CC[C@@H](c2nc(CC(C)(C)O)c(-c3ccccc3)o2)CN1C(=O)c1ccccc1-n1nccn1` [Example 68, (2-(2H-1,2,3-Triazol-2-yl)phenyl)((2R,5R)-5-(4-(2-hydroxy-2-methylpropyl)-5-phenyloxazol-2-yl)-2-methylpiperidin-1-yl)methanone], the results for the IC50 at hOX1R and on human orexin-2 receptor were 95 nM and 62 nM, respectively.
Regarding `COC(C)(C)Cc1nc([C@@H]2CC[C@@H](C)N(C(=O)c3ccccc3-n3nccn3)C2)oc1-c1ccccc1` [Example 69, (2-(2H-1,2,3-Triazol-2-yl)phenyl)((2R,5R)-5-(4-(2-methoxy-2-methylpropyl)-5-phenyl-oxazol-2-yl)-2-methylpiperidin-1-yl)methanone], the half-inhibitory concentration (IC50) at hOX1R was 385 nM; on human orexin-2 receptor it was 287 nM.
